What all share (experiment): NCI-60 cell line screen, 48 h
Test [1] concerns OVCAR-5 ovarian.
In test [2] the test system is NCI/ADR-RES ovarian.
For test [3], the system named is HOP-62 NSCLC.
In test [4] the test system is HS 578T breast.
Test [5] concerns HCT-116 colon.
Test [6] has as its system SK-OV-3 ovarian.
Test [7] has as its system CAKI-1 renal.
Test [8] has as its system LOX IMVI melanoma.
Test [9] has as its system SF-268 CNS.
Test [10] has as its system U251 CNS.

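96-well plates; 48 h exposure; 5 concentrations. Endpoints by linear interpolation between flanking doses. Not reached: highest tested concentration assigned. Abbreviation: GI50, concentration required for 50% inhibition of growth. Definition used: TGI = concentration required for complete inhibition of growth.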

On to `CC1=C(C(=O)Nc2ccc(F)c(Cl)c2)C(c2cccc(Oc3ccccc3)c2)NC(=S)N1` (stereo not given), for which the GI50 in test [1] is 19.2 µM; in test [2], 27.8 µM; in test [3] it was 14.7 µM; in test [4] it was 13.3 µM; in [5] it was 14600 nM; in test [6] it was 15.9 µM. The GI50 in test [7] was 15.9 µM; in test [8], 8770 nM; in [9] it was 10.5 µM; in test [10] it was 9.64 µM. The TGI in test [1] was 34.8 µM; in [2], more than 50 µM; in test [3], 30.1 µM; in test [4] it was 29.2 µM; in test [5] it was 46.8 µM; in test [6] it was 43.3 µM. In addition, the TGI in test [7] was more than 50 µM; in [8], 20.2 µM; in test [9] it was 24.2 µM; in test [10], 20.2 µM.

As for `CS(=O)(=O)c1cccc(Nc2ncc3cc(-c4ccccc4Cl)ccc3n2)c1`, the GI50 in [1] was 1.88 µM; in test [2] it was 1.24 µM; in test [3] it was 1.3 µM; in test [4] it was 1.23 µM; in [5] it was 1010 nM; in [6], 0.883 µM. Moreover, the GI50 in test [7] is 0.859 µM; in test [8], 1060 nM; in test [9], 1.35 µM; in test [10], 1.68 µM. Besides, the TGI in test [1] is more than 33.3 µM; in test [2] it was 17.7 µM; in test [3], more than 33.3 µM; in test [4], 10.3 µM; in [5] it was 4.51 µM; in test [6] it was 2.99 µM. For the same molecule, the TGI in [7] is 9.57 µM; in test [8], 4.54 µM; in test [9], more than 33.3 µM; in test [10] it was more than 33.3 µM.

`Oc1[nH]c2ccccc2c1/C=c1/ccc2c(c1)N=C(c1ccc(C(F)(F)F)cc1)N=2`: the GI50 was 10.1 µM in [1]; 3.98 µM in test [2]; 4.94 µM in [3]; 3.09 µM in [4]; 1370 nM in test [5]; 12.1 µM in [6]. The GI50 in test [7] was 3.11 µM; in test [8], 1820 nM; in [9], 3.46 µM; in [10], 2.83 µM. Also, the TGI in [1] came to 22 µM; in test [2] it was 13.1 µM; in test [3], 15.6 µM; in [4], 12.7 µM; in test [5], 12.3 µM; in [6], 25 µM. For the same molecule, the TGI in [7] came out at 13.6 µM; in test [8] it was 5.37 µM; in test [9], 11.9 µM; in test [10], 12.8 µM.

Take `CC(=O)/C(Br)=C/c1ccc(Br)o1`: the GI50 in test [1] was 13.7 µM; in test [2] it was 7.88 µM; in test [3], 24.6 µM; in [4], 2.39 µM; in test [5], 2130 nM; in [6], 26.8 µM. Further, the GI50 in test [7] is 6.05 µM; in test [8] it was 4350 nM; in [9], 7.58 µM; in test [10] it was 14.4 µM. For the same molecule, the TGI in test [1] is 34.4 µM; in test [2], 38.3 µM; in test [3], 59.2 µM; in test [4] it was 7.22 µM; in test [5] it was 5.89 µM; in test [6], more than 65.8 µM. Besides, the TGI was determined as 12.4 µM in test [7], 14.9 µM in test [8], 23.6 µM in [9] and 27.8 µM in test [10].

With `Cc1ccc(-c2nc(-c3nccc4ccccc34)oc2-c2ccccc2)cc1`, the TGI in test [1], in [2], in test [3], in test [4], in test [5] and in [6] was more than 100 µM in each case. In addition, the TGI in [7] is more than 100 µM; in test [8], 48.2 µM; in test [9] it was more than 100 µM; in test [10], more than 100 µM.

In the case of `COc1ccc(C2C(C#N)=C(N)Oc3c2sc2c(Br)cccc32)cc1` (stereo not given), the GI50 in test [1] was 8.95 µM; in test [2], 0.767 µM; in test [3] it was 4.48 µM; in test [4] it was 3.3 µM; in [5] it was 1930 nM; in test [6], 4.68 µM. The GI50 in test [7] is 2.47 µM; in [8], 2030 nM; in test [9] it was 4.62 µM; in test [10] it was 3.25 µM. Besides, the TGI in test [1] is 26.5 µM; in test [2], 4.26 µM; in test [3], 17.5 µM; in [4] it was 36.1 µM; in test [5] it was 12.3 µM; in test [6] it was 19.9 µM. Moreover, the TGI came out at 18.2 µM in test [7], 12.8 µM in test [8], 21.5 µM in test [9] and 12.4 µM in [10].

As for `CCCc1nc(Cl)c(Cl)c(Cl)n1`, the TGI in test [1] is 97.9 µM; in [2], more than 100 µM; in test [3] it was more than 83.4 µM; in test [4], 44.3 µM; in test [5], 26.8 µM; in test [6] it was more than 100 µM. Besides, the TGI in test [7] amounted to 27.7 µM; in test [8], 17.7 µM; in test [9] it was 33.4 µM; in test [10], 30.1 µM.

In the case of `Cn1cc(C2=C(c3cn(CCCN)c4ccccc34)C(=O)NC2=O)c2ccccc21`, the GI50 in test [1] is 9.52 µM; in test [2], 10.8 µM; in test [3], 6.09 µM; in test [4], 3.91 µM; in test [5], 3480 nM; in test [6], 5.58 µM. For the same molecule, the GI50 is 4.94 µM in test [7], 3400 nM in test [8], 5.33 µM in [9] and 5.01 µM in [10]. The TGI in test [1] was more than 25 µM; in [2], more than 25 µM; in test [3], 17 µM; in [4], 16.8 µM; in [5] it was 10.1 µM; in test [6], more than 25 µM. For the same molecule, the TGI in test [7] was more than 15.9 µM; in test [8] it was 7.49 µM; in test [9], 12.8 µM; in test [10], 11.5 µM.

The record behind these values is PubChem BioAssay (NCI).
